These results are taken from PubChem BioAssay (NCI).

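The compound was tested at five concentrations on cells cultured in 96-well plates, with a 48-hour exposure period. TGI marks complete inhibition of growth.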

Assay in all cases: DTP human tumour cell line panel, 48 h
Assay [1] relates to KM12 colon.
Assay [2] concerns BT-549 breast.
Assay [3] has as its system SNB-75 CNS.
Assay [4] deals with HOP-92 NSCLC.
In assay [5] the test system is SR leukemia.
The subject of assay [6] is A549 NSCLC.
For assay [7], the system named is PC-3 prostate.
Assay [8] relates to NCI-H460 lung.
The subject of assay [9] is HT29 colon.
Assay [10] relates to MDA-MB-435.

Turning to `CN(NC(=O)c1ccco1)C1=NCCCCN1`, the total growth inhibition concentration (TGI) in assay [1], in [2], in [3], in [4], in [5] and in assay [6] was more than 100 µM in each case. The TGI in [7], in assay [8], in [9] and in assay [10] was more than 100 µM in each case.
On to `CC(C)CN1CN(c2ccccc2)C2(CCN(CC(C)(c3ccc(F)cc3)C3OCCO3)CC2)C1=O` (stereo not given), for which the TGI came to 15.6 µM in assay [1]; 20.9 µM in [2]; 20 µM in [3]; 12.8 µM in assay [5]; 19.7 µM in assay [6]; 14.3 µM in assay [7]. Further, the results for the TGI in assay [9] and in assay [10] were 5.94 µM and 23.5 µM, respectively.
In the case of `O=C(CCSC(CC(=O)c1ccc(Cl)cc1)c1ccc(Cl)cc1)Nc1ccc(Cl)cc1` (stereo not given), the TGI amounted to 12.4 µM in [1]; 27.1 µM in [2]; 36.4 µM in assay [3]; 32.9 µM in assay [4]; 9.57 µM in [5]; 40 µM in assay [6]. Besides, the TGI in assay [7] is 27.1 µM; in [8] it was 28.6 µM; in assay [9] it was 24.6 µM; in assay [10], 25.6 µM.
Consider `CN1CC(c2ccccc2)=Cc2c1ccc(N)c2N=N`, for which the TGI in assay [1], in assay [2], in assay [3], in assay [5], in [6] and in assay [7] was more than 100 µM throughout. Also, the TGI in assay [8], in assay [9] and in assay [10] was more than 100 µM each time.
As to `CCOC(=O)c1cc2cc(Cc3ccc4[nH]c(C(=O)OCC)cc4c3)ccc2[nH]1`, the TGI in [1] was more than 100 µM; in [2], 26.8 µM; in assay [3], 27.9 µM; in assay [4] it was 27.8 µM; in [5] it was more than 100 µM; in [7] it was more than 100 µM. In addition, the TGI in assay [8], in assay [9] and in assay [10] was more than 100 µM in each case.
As to `N#CI1OC(=O)c2ccccc21`, the TGI in assay [1], in assay [2], in assay [3], in assay [5], in [6] and in assay [7] was more than 100 µM in each case. For the same compound, the TGI in assay [8], in [9] and in assay [10] was more than 100 µM each time.
For `O=c1cnn(C2OC(CO)C(O)C(F)C2O)c(=O)[nH]1` (stereo not given), the TGI in assay [1], in assay [2], in assay [4], in assay [5], in assay [6] and in [7] was more than 100 µM throughout. The TGI in [8], in assay [9] and in assay [10] was more than 100 µM each time.
For `COC(=O)c1ccc(CN2CCc3c([nH]c4ccccc34)C2CO)o1` (stereo not given), the TGI in assay [1], in assay [2], in assay [3], in [4], in [5] and in assay [6] was more than 10 µM in each case. The total growth inhibition concentration (TGI) in [7], in assay [9] and in assay [10] was more than 10 µM each time.
Turning to `CC(=O)N[C@@H](Cc1ccc(O)cn1)C(=O)NCc1cccc(F)c1`, the TGI in [1], in assay [2], in assay [4], in assay [5], in assay [6] and in assay [7] was more than 100 µM throughout. Further, the TGI in [8], in assay [9] and in assay [10] was more than 100 µM in each case.
In the case of `Oc1ccc(-c2cc(-c3c(O)cc(O)cc3O)on2)cc1`, the TGI in assay [1], in assay [2], in [3], in assay [5], in assay [6] and in [7] was more than 100 µM throughout. Further, the TGI in [8], in [9] and in assay [10] was more than 100 µM throughout.
As to `CCOC(=O)CC(C)C(C#N)(OP1(=O)OC(c2ccccc2)C(C)N1C)c1ccccc1` (stereo not given), the TGI in assay [1], in assay [2], in assay [4], in [5], in assay [6] and in [7] was more than 100 µM throughout. Also, the TGI in assay [8], in assay [9] and in assay [10] was more than 100 µM in each case.
On to `Cc1cc(-c2ccc(C(=O)C(Cl)(Cl)Cl)[nH]2)on1`, for which the concentration for total growth inhibition (TGI) in assay [1] is 24.6 µM; in assay [2], 98.1 µM; in assay [3] it was more than 100 µM; in assay [4], more than 100 µM; in [6], more than 100 µM; in assay [7], more than 100 µM. Also, the figures for the TGI in [8], in assay [9] and in assay [10] were 21.8 µM, 76.8 µM and 70.6 µM, respectively.
As for `Fc1cccc(F)c1C1SCC2=Nc3ccccc3CN21` (stereo not given), the TGI in [1] is more than 100 µM; in assay [2], more than 100 µM; in [3] it was 81.8 µM; in assay [4], more than 100 µM; in assay [5], more than 100 µM; in [6] it was more than 100 µM. Further, the TGI in assay [7], in assay [8] and in assay [10] was more than 100 µM throughout.
For the compound `CN(C)CC1CCC/C(=C\c2ccc(N(C)C)cc2)C1=O` (stereo not given), the concentration for total growth inhibition (TGI) is 2.93 µM in assay [1]; 29.7 µM in assay [2]; 30.7 µM in assay [3]; 9.79 µM in assay [4]; 32.1 µM in assay [6]; 32.2 µM in assay [7]. Also, the results for the TGI in assay [8], in [9] and in assay [10] were 28.5 µM, 3.6 µM and 17.4 µM, respectively.
`O=S(=O)(O)c1ccc(NN(c2c(O)ccc3ccccc23)S(=O)(=O)O)cc1`: the TGI in [1], in assay [2], in assay [5], in assay [6], in assay [7] and in assay [8] was more than 100 µM each time. For the same compound, the TGI in assay [9] and in assay [10] was more than 100 µM in each case.
As to `COc1c2cc(C(C)(C)C)cc1CSCc1cc(C(C)(C)C)cc(c1OC)CCCCC2`, the TGI in assay [1], in [2], in [3], in assay [5], in assay [6] and in assay [7] was more than 50 µM in each case. Further, the concentration for total growth inhibition (TGI) in assay [8], in assay [9] and in assay [10] was more than 50 µM each time.
On to `CC(C)(C)C1CCC2c3c([nH]c4ccccc34)C3C(=O)N(c4cc(Br)cc(Br)c4)C(=O)C3C2C1` (stereo not given), for which the TGI was more than 100 µM in [1]; more than 100 µM in assay [2]; 8.82 µM in [4]; 82.4 µM in assay [5]; more than 100 µM in [6]; 33.2 µM in assay [7]. Moreover, the TGI in assay [8] is 74.2 µM; in assay [9], more than 100 µM; in assay [10] it was 77.2 µM.
As for `CCOC(=O)C1NCCc2c1[nH]c1ccccc21` (stereo not given), the TGI in assay [1], in assay [2], in [3], in assay [4], in assay [5] and in assay [6] was more than 10 µM in each case. Further, the total growth inhibition concentration (TGI) in assay [7], in [9] and in assay [10] was more than 10 µM throughout.
As for `CSc1nc2c(c(N(C)C)n1)C=Nn1c(nc3ccccc31)S2`, the TGI is more than 100 µM in assay [1]; more than 100 µM in assay [2]; more than 100 µM in assay [3]; 89.4 µM in [4]; more than 100 µM in assay [6]; more than 100 µM in assay [7]. Besides, the TGI in assay [8], in assay [9] and in [10] was more than 100 µM each time.
For `COC(=O)OC[C@H]1O[C@@H](n2cc(C)c(=O)[nH]c2=O)CC1OC(=O)OC` (stereo not given in full), the TGI in assay [1], in [2], in [3], in assay [5], in assay [6] and in assay [7] was more than 100 µM throughout. In addition, the TGI in [8], in assay [9] and in assay [10] was more than 100 µM each time.
With `N#CC(c1ccc(O)cc1)N1CCN(C(C#N)c2ccc(O)cc2)CC1` (stereo not given), the TGI in assay [1] is more than 100 µM; in assay [2], more than 100 µM; in assay [3], 48.1 µM; in assay [4], 60.1 µM; in assay [5], more than 100 µM; in assay [6], more than 100 µM. For the same compound, the TGI in assay [7], in assay [9] and in [10] was more than 100 µM in each case.
With `COc1cc2c(cc1OC)C(=O)N(c1ccc(O)cc1)C2`, the TGI in assay [2], in [4], in [5], in assay [6], in assay [7] and in assay [8] was more than 100 µM in each case. In addition, the TGI in assay [9] and in [10] was more than 100 µM throughout.
Consider `NC1=CN(CCCO)C2=N/C(=C\c3ccco3)C(=O)N12`, for which the TGI in [1], in [2], in [3], in assay [4], in [6] and in assay [7] was more than 100 µM each time. The TGI in assay [8], in assay [9] and in assay [10] was more than 100 µM in each case.
For `CCOC(=O)c1ccc(NC2Oc3cc4c(cc3C(c3cc(OC)c(OC)c(OC)c3)C2C)OCO4)cc1` (stereo not given), the concentration for total growth inhibition (TGI) in assay [1] was 3.69 µM; in assay [2], 6.76 µM; in [3], 0.704 µM; in assay [4], 32.2 µM; in [6] it was more than 73.2 µM; in assay [7], more than 100 µM. Also, the TGI was more than 100 µM in [8], 12.9 µM in [9] and 0.448 µM in [10].
In the case of `O=C1Nc2ccccc2C(=O)OC(Cc2ccccc2)=Nc2ccccc21`, the TGI in [1], in assay [2], in assay [3], in [5], in [6] and in [7] was more than 100 µM each time. Further, the TGI in assay [8], in assay [9] and in assay [10] was more than 100 µM each time.
On to `CCOC(=O)NNC(=O)NCCNC(=O)NNC(=O)OCC`, for which the TGI in assay [1], in [2], in [3], in assay [5], in assay [6] and in assay [7] was more than 100 µM in each case. Also, the TGI in assay [8], in [9] and in assay [10] was more than 100 µM in each case.
Take `COC(=O)C(=O)C(C(=O)C(=O)Nc1ccccc1C(=O)OC)c1nc2ccc(C(=O)c3ccccc3)cc2[nH]c1=O` (stereo not given): the TGI in assay [1], in [2], in assay [3], in assay [4], in [6] and in assay [7] was more than 100 µM each time. The TGI in [8], in [9] and in assay [10] was more than 100 µM each time.
For the compound `Oc1c(OCc2nnc(CCCCCCCCc3nnc(COc4ccc5ccccc5c4O)n3Nc3ccccc3)n2Nc2ccccc2)ccc2ccccc12`, the TGI in [1] was found to be 19 µM; in [2], 25.7 µM; in assay [3], 35.5 µM; in assay [4] it was 32.3 µM; in [6] it was 27.8 µM; in assay [7] it was 19.2 µM. In addition, the TGI worked out at 20.5 µM in assay [8], 26.2 µM in assay [9] and 19.3 µM in assay [10].
Regarding `Cc1ncc([N+](=O)[O-])n1CCN(C)CCCCn1ccnc1[N+](=O)[O-]`, the TGI in assay [1], in assay [2], in [3], in [5], in assay [6] and in [7] was more than 100 µM each time. The TGI in assay [8], in [9] and in assay [10] was more than 100 µM throughout.
